The values that follow are results of earlier work, collected in patent publication US20200222348A1, “BIMODAL MODIFIED RELEASE COMPOSITIONS FOR CANCER TREATMENT” (MUSLI THYROPEUTICS LTD., priority 2017, published 2020).

The structures appear in SMILES notation.

The conditions of this series: stated as general knowledge.

As for `N[C@@H](Cc1cc(I)c(Oc2ccc(O)c(I)c2)c(I)c1)C(=O)O` [Example T3, triiodothyronine], the biological half-life (T3, short biological half-life) is reported as 48-60 hours. Also, the Tmax in serum result (T3 in serum) is recorded as “about 4 hrs”.
